How the values were obtained:
Type in all cases: cell-based
NCI-H358 = assay: Anti-proliferation assay (CellTiter-Glo 2.0), combination index, NCI-H358
Summary of the method: (§1)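 Cells were seeded at 500 cells/well in medium with 10% FBS and exposed to agents at 8 concentrations including 0 nM, for 3 days at 37° C under 5% CO2. Survival was read by CellTiter-Glo 2.0 luminescence, and combination index was determined at each combined concentration.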

RT4 = assay: Anti-proliferation assay (CellTiter-Glo 2.0), combination index, RT4
Summary of the method: as §1

NCI-H23 = assay: Anti-proliferation assay (CellTiter-Glo 2.0), combination index, NCI-H23
Experimental: (§2) Cell lines were obtained from ATCC or Health Science Research Resources Bank.
Each cell lines were collected by ordinary method, then suspended in indicated medium containing 10% fetal bovine serum in table 3. The number of cells seeded per well was set to 500 cells/20 μL. […] The concentration of each anti-cancer reagents set to 8 concentrations including 0 nM. After adding the medicine to the cells, the cells were further incubated at 37° C. for 3 days under 5% CO2. Cell survival rates were calculated by adding 20 μL of CellTiter-Glo(registered trademark) 2. 0 (Promega) solution to each well, incubating the cells at room temperature for 10 minutes, and then measuring the chemiluminescence intensity of each well using a plate reader (ARVO).
(§3) A combination index (CI) value at each combined concentration of the medicines was determined.

MV-4-11 = assay: Anti-proliferation assay (CellTiter-Glo 2.0), combination index, MV-4-11
Summary of the method: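 Cells were seeded at 500/well in 10% FBS medium and grown 24 h at 37°C before dosing. Compound 1 (10 concentrations) was combined with a second antitumor agent (8 concentrations including 0 nM) for 3 days. Viability was read by CellTiter-Glo 2.0 luminescence, and a combination index was calculated at each concentration pair.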

RMG-I = assay: Anti-proliferation assay (CellTiter-Glo 2.0), combination index, RMG-I
Experimental: as §2
384 well culture plate (781086, Greiner Bio-One International) was used for cell survival rate measurement assay. Each cell lines were collected by ordinary method, then suspended in indicated medium containing 10% fetal bovine serum in table 3. The number of cells seeded per well was set to 500 cells/20 μL. After incubation at 37° C. for 24 hours under 5% CO2, Compound 1 and additional compound having an antitumor effect or a vehicle (DMSO) was added to each well by using D300e Digital Dispenser (Tecan). The concentration of Compound 1 was set to 10 concentrations. The concentration of each anti-cancer reagents set to 8 concentrations including 0 nM. After adding the medicine to the cells, the cells were further incubated at 37° C. for 3 days under 5% CO2. Cell survival rates were calculated by adding 20 μL of CellTiter-Glo(registered trademark) 2. 0 (Promega) solution to each well, incubating the cells at room temperature for 10 minutes, and then measuring the chemiluminescence intensity of each well using a plate reader (ARVO).
as §3

MKN45 = assay: Anti-proliferation assay (CellTiter-Glo 2.0), combination index, MKN45; conditions: molar ratio 1:27
Summary of the method: as §1

[1] = Compound 1 41.2 + combination drug 111 nmol/L (1:2.7)
[2] = Compound 1 123 + combination drug 333 nmol/L (1:2.7)
[3] = Compound 1 370 + combination drug 1000 nmol/L (1:2.7)
[4] = Compound 1 1110 + combination drug 3000 nmol/L (1:2.7)
[5] = Compound 1 4.57 + combination drug 111 nmol/L (1:24)
[6] = Compound 1 13.7 + combination drug 333 nmol/L (1:24)
[7] = Compound 1 41.2 + combination drug 1000 nmol/L (1:24)
[8] = Compound 1 1.52 + combination drug 4.12 nmol/L (1:2.7)
[9] = Compound 1 13.7 + combination drug 37.0 nmol/L (1:2.7)
[10] = Compound 1 13.7 + combination drug 111 nmol/L (1:8.1)
[11] = Compound 1 41.2 + combination drug 333 nmol/L (1:8.1)
[12] = Compound 1 123 + combination drug 1000 nmol/L (1:8.1)
[13] = Compound 1 13.7 nmol/L + Abemaciclib 41.2 nmol/L, molar ratio 1:3
[14] = Compound 1 41.2 nmol/L + Abemaciclib 123 nmol/L, molar ratio 1:3
[15] = Compound 1 123 nmol/L + Abemaciclib 370 nmol/L, molar ratio 1:3
[16] = Compound 1 370 nmol/L + Abemaciclib 1110 nmol/L, molar ratio 1:3
[17] = Compound 1 1110 nmol/L + Abemaciclib 3330 nmol/L, molar ratio 1:3
[18] = Compound 1 3330 nmol/L + Abemaciclib 10000 nmol/L, molar ratio 1:3
[19] = Compound 1 4.57 nmol/L + Abemaciclib 123 nmol/L, molar ratio 1:27
[20] = Compound 1 13.7 nmol/L + Abemaciclib 370 nmol/L, molar ratio 1:27
[21] = Compound 1 41.2 nmol/L + Abemaciclib 1110 nmol/L, molar ratio 1:27
[22] = Compound 1 123 nmol/L + Abemaciclib 3330 nmol/L, molar ratio 1:27
[23] = combination effect, Compound 1 + Abemaciclib, molar ratio 1:27
[24] = Compound 1 1.52 nmol/L + Abemaciclib 41.2 nmol/L, molar ratio 1:27
[25] = Compound 1 4.57 nmol/L + Abemaciclib 123 nmol/L
[26] = Compound 1 41.2 nmol/L + Abemaciclib 1110 nmol/L
[27] = Compound 1 123 nmol/L + Abemaciclib 3330 nmol/L

With `COc1cc(N2CCC(N3CCN(C)CC3)CC2)ccc1Nc1ncc(Cl)c(Nc2ccccc2P(C)(C)=O)n1` [Brigatinib] the CI (NCI-H358; [1]) was 0.885, the Fa (NCI-H358; [1]) was 0.3039 and the CI (NCI-H358; [2]) was 0.293. The Fa (NCI-H358; [2]) was 0.6017, the CI (NCI-H358; [3]) was 0.506 and the Fa (NCI-H358; [3]) was 0.7788. It also gave a CI (NCI-H358; [4]) of 0.871, a Fa (NCI-H358; [4]) of 0.9063 and a CI (RT4; [5]) of 0.536. It also gave a Fa (RT4; [5]) of 0.2537, a CI (RT4; [6]) of 0.558 and a Fa (RT4; [6]) of 0.3969. The CI (RT4; [7]) was 0.459, the Fa (RT4; [7]) was 0.6106 and the “Description (combinatory effect by CI)” value (RT4; Compound 1:combination drug molar ratio 1:24) was “Synergy (0.3-0.7)”. The CI (NCI-H23; [1]) was 0.689, the Fa (NCI-H23; [1]) was 0.0998 and the CI (NCI-H23; [2]) was 0.353. For the same compound, the Fa (NCI-H23; [2]) was 0.2711, the CI (NCI-H23; [3]) was 0.447 and the Fa (NCI-H23; [3]) was 0.5739. The CI (NCI-H23; [4]) was 0.614, the Fa (NCI-H23; [4]) was 0.8319 and the “Description (combinatory effect by CI)” value (NCI-H23; Compound 1:combination drug molar ratio 1:2.7) was “Synergy (0.3-0.7)”. The CI (MV-4-11; [8]) was 0.844, the Fa (MV-4-11; [8]) was 0.3537 and the CI (MV-4-11; [9]) was 0.430. For the same compound, the Fa (MV-4-11; [9]) was 0.8161, the CI (MV-4-11; [1]) was 0.286 and the Fa (MV-4-11; [1]) was 0.9418. It also gave a CI (MV-4-11; [2]) of 0.503, a Fa (MV-4-11; [2]) of 0.9637 and a CI (MV-4-11; [3]) of 0.933. For the same compound, the Fa (MV-4-11; [3]) was 0.9768, the CI (MV-4-11; [4]) was 0.966 and the Fa (MV-4-11; [4]) was 0.9918. It also gave a CI (RMG-I; [10]) of 0.462, a Fa (RMG-I; [10]) of 0.2251 and a CI (RMG-I; [11]) of 0.493. The Fa (RMG-I; [11]) was 0.4905, the CI (RMG-I; [12]) was 0.963 and the Fa (RMG-I; [12]) was 0.6133. For the same compound, the “Description (combinatory effect by CI)” value (RMG-I; Compound 1:combination drug molar ratio 1:8.1) was “Synergy (0.3-0.7)”.

`CCN1CCN(Cc2ccc(Nc3ncc(F)c(-c4cc(F)c5nc(C)n(C(C)C)c5c4)n3)nc2)CC1` [Abemaciclib] showed a CI (NCI-H358; [13]) of 0.638, a Fa (NCI-H358; [13]) of 0.1857 and a CI (NCI-H358; [14]) of 0.337. It also gave a Fa (NCI-H358; [14]) of 0.3529, a CI (NCI-H358; [15]) of 0.187 and a Fa (NCI-H358; [15]) of 0.5769. For the same compound, the CI (NCI-H358; [16]) was 0.189, the Fa (NCI-H358; [16]) was 0.7183 and the CI (NCI-H358; [17]) was 0.455. The Fa (NCI-H358; [17]) was 0.7441, the CI (NCI-H358; [18]) was 0.025 and the Fa (NCI-H358; [18]) was 0.9724. For the same compound, the CI (NCI-H23; [16]) was 0.292, the Fa (NCI-H23; [16]) was 0.3181 and the CI (NCI-H23; [17]) was 0.420. For the same compound, the Fa (NCI-H23; [17]) was 0.5212, the CI (NCI-H23; [18]) was 0.031 and the Fa (NCI-H23; [18]) was 0.9964. It also gave a CI (MV-4-11; [19]) of 0.592, a Fa (MV-4-11; [19]) of 0.5416 and a CI (MV-4-11; [20]) of 0.494. It also gave a Fa (MV-4-11; [20]) of 0.8419, a CI (MV-4-11; [21]) of 0.654 and a Fa (MV-4-11; [21]) of 0.9407. The CI (MV-4-11; [22]) was 0.951, the Fa (MV-4-11; [22]) was 0.9781 and the Description (MV-4-11; [23]) was “Synergy (0.3-0.7)”. For the same compound, the CI (RMG-I; [24]) was 0.724, the Fa (RMG-I; [24]) was 0.1493 and the CI (RMG-I; [19]) was 0.606. For the same compound, the Fa (RMG-I; [19]) was 0.2479, the CI (RMG-I; [20]) was 0.357 and the Fa (RMG-I; [20]) was 0.4570. It also gave a CI (RMG-I; [21]) of 0.455, a Fa (RMG-I; [21]) of 0.5937 and a CI (RMG-I; [22]) of 0.830. The Fa (RMG-I; [22]) was 0.6711, the Description (RMG-I; [23]) was “Synergy (0.3-0.7)” and the CI (MKN45; [25]) was 0.665. For the same compound, the Fa (MKN45; [25]) was 0.1096, the CI (MKN45; [26]) was 0.647 and the Fa (MKN45; [26]) was 0.5496. The CI (MKN45; [27]) was 0.698, the Fa (MKN45; [27]) was 0.7785 and the Description (MKN45; combination effect, Compound 1 + Abemaciclib) was “Synergy (0.3-0.7)”.
